The numbers were not newly measured in patent publication US8247435B2, “Formulations for treating human and animal diseases” (priority 2009, dated 2012), which cites them from elsewhere.

Entries after “also recorded” stand apart in the source; their conditions may differ. Like-named read-outs stand apart in the source and are kept apart here.

The subject of data set [1] is VEGF-dependent angiogenesis. The note with it: VEGF-expressing CAMs.
The conditions of data set [2]: cancer patients, 145 patients.
The conditions of data set [3]: 300 mg/day, 4 months.
The subject of data set [4] is non-small cell lung cancer. The note with it: with carboplatin and paclitaxel.
A further data set concerns ocular neovasculation. The note with it: primates, systemic, twice weekly.
The test system of data set [5] is human vascular endothelial cells. The note with it: doses as low as.
For data set [6], the system named is non-small cell lung cancer.
The subject of another data set is Lewis lung carcinoma. The settings on record: mice, day 20.
Data set [7] concerns rat 13762 mammary carcinoma. The settings on record: single agent, 40 mg/kg.
Assay in data set [8]: not given
This is another data set of the same source.

For data set [9] the following is noted: 500 mg/m^2/day.
The conditions of data set [10]: highest dose 3000 mg/day.
The conditions of data set [11]: oral; MS patients on immunosuppressive or immunomodulatory therapies.
A further data set deals with normal bladder cells. The note with it: normal physiological range of urine excretion (10 μg/ml).
Data set [12] deals with HTB-186 medulloblastoma cell line.
Data set [13] relates to human umbilical vein endothelial cells (HUVECs). The note with it: 10 microM genistein.
The test system of data set [14] is Reuber H35 hepatoma cells. The settings on record: radiation in the presence of genistein; irradiation alone factor 20.
Assay in data set [15]: not given
The source holds these as a separate data set.

Assay in data set [16]: not given
This is another data set of the same source.

The conditions of data set [17]: humans; not identified at doses used.
In another data set the test system is Candida. The note with it: 600 mg orally 3 times a day for 15 days.

On to angiostatin, for which the “total vessel number relative to VEGF controls” value in data set [1] is reported as “nearly half”.
`O=c1[nH]c(=O)n(C2CCCO2)cc1F` (stereo not drawn) [tegafur alone, tegafur]: the 50% survival time in data set [2] is recorded as 92 days.
With Cyanocobalamin [vitamin B12], the “amount excreted in the normal urine daily” value (in vivo) was “About 30 mcg”. Further, the quantity excreted result (injected in a large dose up to 100 mcg) was “up to 90%”.
With `O=C(O)CCCCC1CCSS1` (stereo not drawn) [ALA, alpha-lipoic acid], the “patients who were responders or high responders” value in data set [3] is listed as 22 of the 39.
Regarding `CC(C)[C@@H](CC[C@@H](C)[C@H]1CC[C@H]2[C@@H]3[C@H](O)C[C@H]4C[C@@H](NCCCNCCCCN)CC[C@]4(C)[C@H]3CC[C@]12C)OS(=O)(=O)O` [squalamine], in [4] (300 mg/m^2/day for one or more cycles, response = 50% or greater reduction in tumor size), the “objective responses, patients” value was 36%. In addition, the “patients with an objective response” value in [4] (all patients (11 of 36)) is reported as “Thirty-one”. The “dose producing inhibition of ocular neovasculation and partial regression of new vessels” value with ocular neovasculation was 12 mg/m^2. Further, the “dose that halted proliferation of human vascular endothelial cells” value in data set [5] is listed as 160 nM. Besides, the “patients with dose-limiting toxicity” value in data set [6] (400 mg/m^2/day, arthralgia, myalgia, neutropenia) was “two of three”. For the same compound, the tolerability entry in data set [6] (continuously daily for 5 days with paclitaxel and carboplatin on day 1) is on record as “well tolerated”; in data set [8] (384 mg/m^2/day, patients without prior exposure to squalamine), “well-tolerated”; in data set [9], “well tolerated”. Besides, the “number of lung metastases relative to controls” value in the data set with Lewis lung carcinoma is “reduced to half; also recorded: reduced by half”. In addition, the tumor growth delay result in [7] is “modest effect”. The best-tolerated dose in [8] (continuous intravenous infusion over 120 h, every 14 days, 19 patients) is recorded as 192 mg/m^2/day. Moreover, the “plasma concentrations relative to those required for antiangiogenic effects in preclinical studies” value in [9] was “at least an order of magnitude higher”.
With `CC(=O)O[C@H](CC(=O)[O-])C[N+](C)(C)C` [ALC, Acetyl-L-carnitine], the “side effects and toxicities” value in data set [10] is “no toxicities were noted”. In addition, the “patients with decreased fatigue intensity” value in [11] is recorded as 63%.
Consider `O=c1c(-c2ccc(O)cc2)coc2cc(O)cc(O)c12` [genistein, 4′5,7-trihydroxyisoflavone], for which the “toxicity to normal bladder cells” value in the data set with normal bladder cells was “not exhibit toxicity”. For the same compound, in data set [12], the “increase of the antiproliferative effect of cisplatin” value is listed as 1.3 fold. Also, in data set [13], the “number of genes with altered expression of more than two fold” value was 256. The “factor by which survival was reduced” value in data set [14] was 10000. The mean plasma/serum genistein in data set [15] (American study, Western diet) is reported as 5.7 nmol/L. For the same compound, in [15] (Japanese study), the mean plasma/serum genistein is 248 nmol/L and the “plasma/serum genistein, range” value is recorded as 90 to 1204 nmol/L. For the same compound, in data set [15] (with soy supplementation), the excretion half-life entry is listed as “seven”.
Turning to `COC1=C(OC)C(=O)C(C/C=C(\C)CC/C=C(\C)CC/C=C(\C)CC/C=C(\C)CC/C=C(\C)CC/C=C(\C)CC/C=C(\C)CC/C=C(\C)CC/C=C(\C)CCC=C(C)C)=C(C)C1=O` [CoQ10, ubiquinone], the “prevalence of memory loss on most recent follow-up” value in data set [16] (from 8% on initial visit) is on record as 4%. Moreover, the “prevalence of peripheral neuropathy on most recent follow-up” value in data set [16] (from 10% on initial visit) was 2%. In [16] (from 58% on initial visit), the “prevalence of dyspnea on most recent follow-up” value was 12%. Besides, in data set [16] (from 64% on initial visit), the “prevalence of myalgia on most recent follow-up” value is recorded as 6%. Further, the “prevalence of fatigue on most recent follow-up” value in data set [16] (from 84% on initial visit, average 240 mg/day, statin discontinued) was 16%.
In the case of `COc1cc(/C=C/C(=O)CC(=O)/C=C/c2ccc(O)c(OC)c2)ccc1O` [curcumin], the maximum tolerated dose in data set [17] was at least 8000 mg per day.
With `Oc1ccc(C=Cc2cc(O)cc(O)c2)cc1` [resveratrol, 3,4′,5-trihydroxystilbene], the “levels required for cancer chemopreventive effects in cells in vitro” value in the data set with cells in vitro is “at least 5 μM”.
As to `CC(=O)N[C@@H](CS)C(=O)O` [NAC, N-Acetyl Cysteine], in data set [1], the “total vessel number relative to VEGF controls” value was “nearly half”. Further, the “antifungal activity of peripheral blood monocytes (PBM)” value in the data set on Candida was “significantly enhanced”.
